IC50 data for 32 molecules are collected here from patent US20190134005A1 (BioMarin Pharmaceutical Inc., priority 2016, published 2019).

For orientation: IC50 means the midpoint of a concentration-inhibition curve.

The target of the assay is T1, human CGT (Homo sapiens, UniProt Q16880).
T1 sequence (Q16880 21-541): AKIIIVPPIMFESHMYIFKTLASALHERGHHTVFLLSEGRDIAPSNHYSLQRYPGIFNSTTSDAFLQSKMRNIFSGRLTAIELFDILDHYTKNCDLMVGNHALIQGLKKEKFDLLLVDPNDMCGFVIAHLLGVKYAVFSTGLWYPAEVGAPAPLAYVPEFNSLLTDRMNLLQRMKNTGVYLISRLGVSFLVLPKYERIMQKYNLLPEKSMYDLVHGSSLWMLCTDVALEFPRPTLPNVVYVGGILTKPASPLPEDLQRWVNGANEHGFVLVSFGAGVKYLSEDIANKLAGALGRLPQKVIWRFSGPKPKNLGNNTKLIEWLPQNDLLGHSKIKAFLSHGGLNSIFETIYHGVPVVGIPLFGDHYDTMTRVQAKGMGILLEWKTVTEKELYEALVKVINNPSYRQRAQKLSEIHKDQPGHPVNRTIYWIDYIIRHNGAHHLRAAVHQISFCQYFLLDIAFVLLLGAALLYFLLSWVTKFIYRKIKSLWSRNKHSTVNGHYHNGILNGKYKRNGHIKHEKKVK
Kind of assay: Assay 1: CGT Enzymatic Assay (RapidFire/MS/MS, 0.01% Tween 80). Format: biochemical. Conditions: Table 1, Compounds of Formula (I) and Formula (II), CGT enzymatic assay, read-out: IC50.

[1] abbreviates: C6-NBD-dihydro-galactosylceramide readout.

Where two headings read alike, the source gives them in different places.

With `O=C1N(c2ccc(Br)cc2)C(=O)C(O)(C(F)(F)F)N1c1ccc(Br)cc1` (centres unmarked) [Example 216, 1,3-bis(4-bromophenyl)-5-hydroxy-5-(trifluoromethyl)imidazolidine-2,4-dione], the IC50 was greater than 50000 nM.
Same read-out and setting: in the case of `CCOC(=O)C1(O)C(c2ccccc2)N(c2ccc(Cl)cc2)C(=O)N1c1ccc(Cl)cc1` (centres unmarked) [Example 217, ethyl 1,3-bis(4-chlorophenyl)-4-hydroxy-2-oxo-5-phenylimidazolidine-4-carboxylate] it was 1000 to 10000 nM; in that of `O=C1N(c2ccc(Cl)cc2)C(c2ccccc2)C(O)(CO)N1c1ccc(Cl)cc1` (centres unmarked) [Example 218, 1,3-bis(4-chlorophenyl)-4-hydroxy-4-(hydroxymethyl)-5-phenylimidazolidin-2-one], 10000 to 50000 nM; in that of `O=C1N(c2ccc(Cl)cc2)[C@H](c2ccccc2)[C@](O)(CO)N1c1ccc(Cl)cc1` [Example 218-1, (4S,5R)-1,3-bis(4-chlorophenyl)-4-hydroxy-4-(hydroxymethyl)-5-phenylimidazolidin-2-one], 10000 to 50000 nM.
As for `O=C1N(c2ccc(Cl)cc2)[C@@H](c2ccccc2)[C@@](O)(CO)N1c1ccc(Cl)cc1` [Example 218-2, (4R,5S)-1,3-bis(4-chlorophenyl)-4-hydroxy-4-(hydroxymethyl)-5-phenylimidazolidin-2-one], the 50% inhibitory concentration (IC50) was 10000 to 50000 nM.
Same read-out and setting: for `C[C@]1(c2cccc(C(F)(F)F)c2)C(O)N(c2ccc(Br)cc2)C(=O)N1c1ccc(Br)cc1` (stereo partly drawn) [Example 219-1, (4S)-1,3-bis(4-bromophenyl)-5-hydroxy-4-methyl-4-(3-(trifluoromethyl)phenyl)imidazolidin-2-one] the value was 10000 to 50000 nM; for `C[C@@]1(c2cccc(C(F)(F)F)c2)C(O)N(c2ccc(Br)cc2)C(=O)N1c1ccc(Br)cc1` (stereo partly drawn) [Example 219-2, (4R)-1,3-bis(4-bromophenyl)-5-hydroxy-4-methyl-4-(3-(trifluoromethyl)phenyl)imidazolidin-2-one], less than 1000 nM.
Turning to `CC(C)C1(c2cccc(OC(F)(F)F)c2)C(O)N(c2ccc(Cl)cc2)C(=O)N1c1ccc(Cl)cc1` (centres unmarked) [Example 220, 1,3-bis(4-chlorophenyl)-5-hydroxy-4-isopropyl-4-(3-(trifluoromethoxy)phenyl)imidazolidin-2-one], the half-maximal inhibitory concentration (IC50) is less than 1000 nM.
Same read-out and setting: for `N#Cc1cccc(C2(O)N(c3ccc(Cl)cc3)C(=O)N(c3ccc(Cl)cc3)C23CCOC3)c1` (centres unmarked) [Example 221, 3-(1,3-bis(4-chlorophenyl)-4-hydroxy-2-oxo-7-oxa-1,3-diazaspiro[4.4]nonan-4-yl)benzonitrile] the value was less than 1000 nM; for `N#Cc1cccc(C2(O)N(c3ccc(Cl)cc3)C(=O)N(c3ccc(Cl)cc3)[C@]23CCOC3)c1` (stereo partly drawn) [Example 221-1, 3-((5S)-1,3-bis(4-chlorophenyl)-4-hydroxy-2-oxo-7-oxa-1,3-diazaspiro[4.4]nonan-4-yl)benzonitrile], less than 1000 nM; for `N#Cc1cccc(C2(O)N(c3ccc(Cl)cc3)C(=O)N(c3ccc(Cl)cc3)[C@@]23CCOC3)c1` (stereo partly drawn) [Example 221-2, 3-((5R)-1,3-bis(4-chlorophenyl)-4-hydroxy-2-oxo-7-oxa-1,3-diazaspiro[4.4]nonan-4-yl)benzonitrile], less than 1000 nM.
Same read-out and setting: in the case of `Cc1cccc(C2(C)C(O)N(c3ccc(Cl)cc3)C(=O)N2c2ccc(Cl)cc2)c1` (centres unmarked) [Example 222, 1,3-bis(4-chlorophenyl)-5-hydroxy-4-methyl-4-(m-tolyl)imidazolidin-2-one] it was less than 1000 nM; in that of `O=C1N(c2ccc(Cl)cc2)C2(CC2)C(O)(c2cccc(OC(F)(F)F)c2)N1c1ccc(Cl)cc1` (centres unmarked) [Example 224, 4,6-bis(4-chlorophenyl)-7-hydroxy-7-(3-(trifluoromethoxy)phenyl)-4,6-diazaspiro[2.4]heptan-5-one], less than 1000 nM; in that of `O=C1N(c2ccc(Cl)cc2)C2(CC2)C(O)(c2cccc(C(F)(F)F)c2)N1c1ccc(Cl)cc1` (centres unmarked) [Example 225, 4,6-bis(4-chlorophenyl)-7-hydroxy-7-(3-(trifluoromethyl)phenyl)-4,6-diazaspiro[2.4]heptan-5-one], less than 1000 nM.
Same read-out and setting: for `N#Cc1cccc(C2(O)N(c3ccc(Cl)cc3)C(=O)N(c3ccc(Cl)cc3)C23CC3)c1` (centres unmarked) [Example 226, 3-(4,6-bis(4-chlorophenyl)-7-hydroxy-5-oxo-4,6-diazaspiro[2.4]heptan-7-yl)benzonitrile] the value was less than 1000 nM.
Turning to `O=C1N(c2ccc(Cl)cc2)C2(CC2)C(O)(c2cccc(O)c2)N1c1ccc(Cl)cc1` (centres unmarked) [Example 227, 4,6-bis(4-chlorophenyl)-7-hydroxy-7-(3-hydroxyphenyl)-4,6-diazaspiro[2.4]heptan-5-one], the IC50 was in the range of 1000 to 10000 nM.
`O=C1N(c2ccc(Cl)cc2)C2(CC2)C(O)(c2cccc(Cl)c2)N1c1ccc(Cl)cc1` (centres unmarked) [Example 228, 7-(3-chlorophenyl)-4,6-bis(4-chlorophenyl)-7-hydroxy-4,6-diazaspiro[24]heptan-5-one]: the IC50 is less than 1000 nM.
Consider `CC1N(c2ccccc2)C(=O)N(c2ccc(Br)cc2)C1(O)c1cccc(OC(F)(F)F)c1` (centres unmarked) [Example 229, 3-(4-bromophenyl)-4-hydroxy-5-methyl-1-phenyl-4-(3-(trifluoromethoxy)phenyl)imidazolidin-2-one], for which the concentration for half-maximal inhibition (IC50) was less than 1000 nM.
With `CC1N(c2ccccc2)C(=O)N(c2ccccc2)C1(O)c1cccc(OC(F)(F)F)c1` (centres unmarked) [Example 230, 4-hydroxy-5-methyl-1,3-diphenyl-4-(3-(trifluoromethoxy)phenyl)imidazolidin-2-one], the IC50 fell in the range of 1000 to 10000 nM.
Same read-out and setting: in the case of `C[C@@H]1N(c2ccccc2)C(=O)N(c2ccccc2)C1(O)c1cccc(OC(F)(F)F)c1` (stereo partly drawn) [Example 230-1, (5S)-4-hydroxy-5-methyl-1,3-diphenyl-4-(3-(trifluoromethoxy)phenyl)imidazolidin-2-one] it was 1000 to 10000 nM.
Same read-out and setting: in the case of `C[C@H]1N(c2ccccc2)C(=O)N(c2ccccc2)C1(O)c1cccc(OC(F)(F)F)c1` (stereo partly drawn) [Example 230-2, (5R)-4-hydroxy-5-methyl-1,3-diphenyl-4-(3-(trifluoromethoxy)phenyl)imidazolidin-2-one] it was 1000 to 10000 nM.
With `CC(C)C1(c2cccc(C#N)c2)C(O)N(c2ccc(Cl)cc2)C(=O)N1c1ccc(Cl)cc1` (centres unmarked) [Example 231, 3-(1,3-bis(4-chlorophenyl)-5-hydroxy-4-isopropyl-2-oxoimidazolidin-4-yl)benzonitrile], the IC50 lay in the range of 1000 to 10000 nM.
Same read-out and setting: in the case of `CC(C)C1(c2cccc(C#N)c2)C(O)N(c2ccc(Br)cc2)C(=O)N1c1ccc(Br)cc1` (centres unmarked) [Example 232, 3-(1,3-bis(4-bromophenyl)-5-hydroxy-4-isopropyl-2-oxoimidazolidin-4-yl)benzonitrile] it was 1000 to 10000 nM.
Consider `Cc1ccc(N2C(=O)N(c3ccc(C#N)cc3)C(O)(c3cccc(OC(F)(F)F)c3)C23COC3)cc1` (centres unmarked) [Example 307, 4-(8-hydroxy-6-oxo-5-(p-tolyl)-8-(3-(trifluoromethoxy)phenyl)-2-oxa-5,7-diazaspiro[3.4]octan-7-yl)benzonitrile], for which the half-maximal inhibitory concentration (IC50) under setting [1] was less than 1000 nM.
As to `Cc1ccc(N2C(=O)N(c3ccc(C#N)cc3)C(O)(c3cccc(C#N)c3)C23COC3)cc1` (centres unmarked) [Example 308, 3-(7-(4-cyanophenyl)-8-hydroxy-6-oxo-5-(p-tolyl)-2-oxa-5,7-diazaspiro[3.4]octan-8-yl)benzonitrile], the half-maximal inhibitory concentration (IC50) under setting [1] is less than 1000 nM.
The same measure, in the same setting: for `CC1(C)N(c2ccc(C#N)cc2)C(=O)N(c2ccc(Cl)cc2)C1(O)c1cccc(C#N)c1` (centres unmarked) [Example 309, 3-(3-(4-chlorophenyl)-1-(4-cyanophenyl)-4-hydroxy-5,5-dimethyl-2-oxoimidazolidin-4-yl)benzonitrile] the value was less than 1000 nM; for `O=C1N(c2ccc(Cl)cc2)C2(COC2)C(O)(c2sccc2Br)N1c1ccc(Cl)cc1` (centres unmarked) [Example 310, 8-(3-bromothiophen-2-yl)-5,7-bis(4-chlorophenyl)-8-hydroxy-2-oxa-5,7-diazaspiro[3.4]octan-6-one], less than 1000 nM; for `Cc1ccc(N2C(=O)N(c3ccc(Cl)cc3)C(O)(c3cccc(OC(F)(F)F)c3)C23COC3)cc1` (centres unmarked) [Example 311, 7-(4-chlorophenyl)-8-hydroxy-5-(p-tolyl)-8-(3-(trifluoromethoxy)phenyl)-2-oxa-5,7-diazaspiro[3.4]octan-6-one], less than 1000 nM.
For `Cc1ccc(N2C(=O)N(c3ccc(C#N)cc3)C(C)(C)C2(O)c2cccc(OC(F)(F)F)c2)cc1` (centres unmarked) [Example 312, 4-(4-hydroxy-5,5-dimethyl-2-oxo-3-(p-tolyl)-4-(3-(trifluoromethoxy)phenyl)imidazolidin-1-yl)benzonitrile], the IC50 under setting [1] was less than 1000 nM.
Take `Cc1ccc(N2C(=O)N(c3ccc(C#N)cc3)C(O)(c3cccc(C#N)c3)C2(C)C)cc1` (centres unmarked) [Example 313, 3-(3-(4-cyanophenyl)-4-hydroxy-5,5-dimethyl-2-oxo-1-(p-tolyl)imidazolidin-4-yl)benzonitrile]: the IC50 under setting [1] is less than 1000 nM.
The same measure, in the same setting: in the case of `Cc1ccc(N2C(=O)N(c3ccc(C#N)cc3)C(O)(c3cccc(OC(F)(F)F)c3)C2(C)C)cc1` (centres unmarked) [Example 314, 4-(5-hydroxy-4,4-dimethyl-2-oxo-3-(p-tolyl)-5-(3-(trifluoromethoxy)phenyl)imidazolidin-1-yl)benzonitrile] it was less than 1000 nM; in that of `Cc1ccc(N2C(=O)N(c3ccc(Cl)cc3)C(O)(c3cccc(OC(F)(F)F)c3)C23CCC3)cc1` (centres unmarked) [Example 315, 7-(4-chlorophenyl)-8-hydroxy-5-(p-tolyl)-8-(3-(trifluoromethoxy)phenyl)-5,7-diazaspiro[3.4]octan-6-one], less than 1000 nM.
